We go through 17 compounds from US8809377B2, “Deubiquitinase inhibitors and methods for use of the same” (The Regents of the University of Michigan, priority 2010, dated 2014).

The structures appear in SMILES notation.

For assay [1], the system named is USP9X. Nature of the assay: Western / HA-UbVS labeling of USP9X in intact cells or lysates. The format is cell-based. As to conditions: for Western Targets: USP9X: H929, WDT2, Z138 cell lines; for Usp9x activity (HA-UbVs labeling): CML cells treated for 4 hours.
The test system of assay [2] is DUB activity. Nature of the assay: Western / HA-UbVS labeling of DUB activity in intact cells. As to conditions: H929, WDT2, Z138 cell lines. The format is cell-based. The method, then: To assay for changes in activity of cellular deubiquitinase enzymes, leukemic cells were lysed in DUB buffer (50 mM Tris pH 7.4, 5 mM MgCl2, 150 mM NaCl) for 10 min at 4° C. The lysates were centrifuged at 20,000 RCF for 10 min and the supernatant was used for DUB labeling. Equal amounts of lysate were incubated with 500 ng of HA-UbVs for 1 hr at room temperature, followed by boiling in reducing sample buffer and resolving by SDS-PAGE. HA immunoblotting was used to detect DUB labeling.
To assay for changes in activity of cellular deubiquitinase enzymes, Z138 and HEK293 cells were lysed in DUB buffer (50 mM Tris pH 7.4, 5 mM MgCl2, 150 mM NaCl) for 10 min at 4° C. The lysates were centrifuged at 20,000 RFC for 10 min and the supernatant was used for DUB labeling. Equal amounts of lysate were incubated with 500 ng of HA-UbVs for 1 hr at room temperature, followed by boiling in reducing sample buffer and resolving by SDS-PAGE. After protein transfer to nitrocellulose membranes, HA immunoblotting was used to detect DUB labeling.
(§1) Cancer Res, 2010. 70(22): p. […] Blood, 2011. 117(11): p. […] Biochem Pharmacol, 2011. 82(4): p. […] Blood, 2007. 109(8): p. 3470-8.

Assay [3] concerns the target T1, USP9X-UCH (Homo sapiens, UniProt Q93008).
T1 sequence (Q93008 1557-1956 limits assumed): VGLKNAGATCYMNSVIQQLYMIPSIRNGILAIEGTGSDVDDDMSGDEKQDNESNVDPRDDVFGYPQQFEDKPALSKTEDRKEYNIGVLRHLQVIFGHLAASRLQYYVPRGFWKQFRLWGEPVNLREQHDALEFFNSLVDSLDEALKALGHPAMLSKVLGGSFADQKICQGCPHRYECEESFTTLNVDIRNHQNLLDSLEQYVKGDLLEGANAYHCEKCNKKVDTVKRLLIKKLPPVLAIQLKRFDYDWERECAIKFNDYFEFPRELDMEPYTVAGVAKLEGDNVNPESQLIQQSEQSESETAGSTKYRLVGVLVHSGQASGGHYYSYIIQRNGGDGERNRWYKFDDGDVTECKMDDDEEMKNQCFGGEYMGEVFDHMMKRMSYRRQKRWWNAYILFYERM
Type of assay: biochemical. As to conditions: isolated Usp9x-UCH domain enzyme preparation. The method, then:
Purified DUBs at optimal concentrations (USPS; 20 nM, UCH-L1; 20 nM, UCH-L3; 5 nM, USP9x; immunoprecipitated from 500 μg Z138 cell lysate) were incubated in DUB buffer containing WP1130, vehicle alone (DMSO) or 1 mM NEM (positive control for DUB inhibition) in a 100 μL reaction volume for 30 min. The reaction was initiated by the addition of 500 nM Ub-AMC and the release of AMC-fluorescence was recorded at ex/em 380/480 using a spectrofluorometer.
as §1

Assay [4] relates to Murine norovirus (MNV). Nature of the assay: Murine norovirus plaque assay. The format is cell-based. To be noted: Norwalk virus, RAW264.7, MNV, murine macrophages (RAW264.7 or bone marrow derived), 5 μM, 30 min pre-treatment, 8-12 hr; read-out: Log inhibition by plaque assay. The method, then:
Viral titers were determined by plaque assay.
Cells were treated with IFN-β as a positive anti-viral control.

Assay [5] concerns Z138. Nature of the assay: MTT cell growth, survival and apoptosis. To be noted: Z138 cell line.
Method: Cells were seeded in a 96-well plate at 5,000 cells per well in the presence of increasing concentration of WP1130 for 3 days in a CO2 incubator at 37° C. 20 μL of 5 g/L 3-(4,5-dimethylthiazol-2-yl)-2,5-diphenyltetrazolium bromide (MTT) solution was added to each well for 2 h at 37° C. The cells were then lysed in 10% SDS-buffer and absorbance at 570 nm relative to a reference wavelength of 630 nm was determined with a microplate reader. The concentrations resulting in 50% inhibition of cell growth (IC50 values) were calculated.
Annexin V and propidium iodide (PI) staining were used to measure apoptosis in WP1130 treated cells. Briefly, 10^5/mL cells were harvested from tissue culture plates and centrifuged at 2500 rpm for 5 min at room temperature. Media supernatant was removed and cells were washed once in PBS. Cells were then resuspended in 0.4 ml of cold Annexin V binding buffer and Annexin V-FITC and propidium iodide were added. Samples were incubated at room temperature for 10 min in the dark, filtered through nylon mesh, and analyzed by flow cytometry using a FacScan analyzer (Becton-Dickinson, San Jose, Calif.).
Compounds were screened for DUB inhibitory and apoptotic activity in a panel of CML, myeloma and Mantle cell lymphoma cell lines, and compared to WP1130.
The test system of assay [6] is cellular DUB activity. Nature of the assay: DUB activity of lysates from treated cells (Ub-AMC, Ub chain disassembly). The format is cell-based. On the set-up: suppression of cellular DUB activity (ubiquitin-AMC): dose or concentration left out as unconfirmed. As for the experimental part:
Cells were lysed in ice cold DUB buffer containing 50 mM Tris-HCl, pH 7.5, 0.5% NP-40, 5 mM MgCl2, 150 mM NaCl and 1 mM phenylmethylsulfonylfluoride. Briefly, 5 μg of clarified lysate from untreated or treated cells was incubated with 500 nM Ub-AMC in a 100 μL reaction volume at 37° C. and the release of AMC fluorescence was recorded at ex/em 380/480 using a spectrofluorometer. USP9x was immunoprecipitated from 500 μg of cell lysate and incubated in DUB buffer containing NEM, WP1130 or DMSO in a 100 μL reaction volume for 30 min. The reaction was initiated by the addition of 500 nM Ub-AMC and the release of AMC-fluorescence was recorded.
In vitro disassembly of purified polyubiquitin chains (K-48/K-63 linked) was performed as previously described. Five μg of lysate from untreated or WP1130 treated cells were prepared in DUB buffer and incubated with K48- or K-63 linked chains (1 μg) for 10 min at 37° C. The extent of chain disassembly was assessed by ubiquitin immunoblotting.
Inhibition of cellular deubiquitinases could lead to an increase in high molecular weight ubiquitinated proteins in the absence of proteasome inhibition. […] To directly assess the impact of WP1130 on DUB activity in treated cells, cell lysates from control and treated cells were incubated with ubiquitin-AMC and fluorescence generated as a consequence of substrate cleavage was measured as an indicator of DUB activity.
The effect of WP1130 treatment on in vitro deubiquitination/disassembly of purified K48-linked or K63-linked polyubiquitin chains was evaluated. Lysates from WP1130 treated (2 hr) or untreated cells were incubated with 1 μg of unanchored polyubiquitin chains for 5, 10 and 15 min at 37° C.

Turning to `CCCC(NC(=O)/C(C#N)=C/c1cccc(Br)n1)c1ccc(OC)cc1` (stereo not drawn) [Compound 8, (E)-3-(6-bromopyridin-2-yl)-2-cyano-N-(1-(4-methoxyphenyl)butyl)acrylamide], in assay [1], the “Western Targets: USP9X” value is “USP9X and DUB activity: no effect”. In assay [2], the “Western Targets: DUB activity” value is “USP9X and DUB activity: no effect”.

Take `CCCC(NC(=O)/C(C#N)=C/c1ncc[nH]1)c1ccc(OCOC)cc1` (stereo not drawn) [Compound 10, (E)-2-Cyano-3-(1H-imidazol-2-yl)-N-(1-(4-(methoxymethoxy)phenyl)butyl)acrylamide]: in assay [1], the “Western Targets: USP9X” value was “USP9X and DUB activity: no effect”. In assay [2], the “Western Targets: DUB activity” value is “USP9X and DUB activity: no effect”.

With `CCCC(NC(=O)/C(C#N)=C/c1ncc[nH]1)c1ccc(O)cc1` (stereo not drawn) [Compound 11, (E)-2-Cyano-N-(1-(4-hydroxyphenyl)butyl)-3-(1H-imidazol-2-yl)acrylamide], the “Western Targets: USP9X” value in assay [1] was “USP9X and DUB activity: no effect”. For the same compound, the “Western Targets: DUB activity” value in assay [2] was “USP9X and DUB activity: no effect”.

In the case of `CCCC(NC(=O)/C(C#N)=C/c1cccc(Br)n1)c1ccc(OCCN(CC)CC)cc1` (stereo not drawn) [Compound 33, (E)-3-(6-Bromopyridin-2-yl)-2-cyano-N-(1-(4-(2-(diethylamino)ethoxy)phenyl)butyl)acrylamide], in assay [3], the “AMC Assay on USP9X-UCH Activity relative to WP1130” value was “Same”. Also, the log reduction at 5 µM in assay [4] fell in the range of 2 to 2.5. Further, the “MTT Activity relative to WP1130” value in assay [5] is “Less sensitive”.

Turning to `CCCC(NC(=O)/C(C#N)=C/c1cccc(F)n1)c1ccc(OCCN(CC)CC)cc1` (stereo not drawn) [Compound 34, (E)-2-Cyano-N-(1-(4-(2-(diethylamino)ethoxy)phenyl)butyl)-3-(6-fluoropyridin-2-yl)acrylamide], the “AMC Assay on USP9X-UCH Activity relative to WP1130” value in assay [3] is reported as “No inhibition”. In addition, the log reduction at 5 µM in assay [4] was found to be 2. Further, the “MTT Activity relative to WP1130” value in assay [5] is reported as “Less sensitive”.

Regarding `CCCC(NC(=O)/C(C#N)=C/c1cccc(Br)n1)c1ccc(OCCN(C)C)cc1` (stereo not drawn) [Compound 35, (E)-3-(6-Bromopyridin-2-yl)-2-cyano-N-(1-(4-(2-(dimethylamino)ethoxy)phenyl)butyl)acrylamide], the “AMC Assay on USP9X-UCH Activity relative to WP1130” value in assay [3] is “Inconclusive”. Besides, in assay [4], the log reduction at 5 µM worked out at 2. Further, the “MTT Activity relative to WP1130” value in assay [5] is given as “Less sensitive”.

In the case of `CCCC(NC(=O)/C(C#N)=C/c1cccc(F)n1)c1ccc(OCCN2CCCC2)cc1` (stereo not drawn) [Compound 36, (E)-2-Cyano-3-(6-fluoropyridin-2-yl)-N-(1-(4-(2-(pyrrolidin-1-yl)ethoxy)phenyl)butyl)acrylamide], the “AMC Assay on USP9X-UCH Activity relative to WP1130” value in assay [3] is recorded as “No inhibition”. Also, the log reduction at 5 µM in assay [4] was 2. Also, the “MTT Activity relative to WP1130” value in assay [5] is on record as “Less sensitive”.

Consider `CCCC(NC(=O)/C(C#N)=C/c1cccc(F)n1)c1ccc(OCCN2CCOCC2)cc1` (stereo not drawn) [Compound 37, (E)-2-Cyano-3-(6-fluoropyridin-2-yl)-N-(1-(4-(2-morpholinoethoxy)phenyl)butyl)acrylamide], for which, in assay [3], the “AMC Assay on USP9X-UCH Activity relative to WP1130” value was “No inhibition”. For the same compound, in assay [4], the log reduction at 5 µM came out at 1. The “MTT Activity relative to WP1130” value in assay [5] is listed as “Less sensitive”.

In the case of `CCCC(NC(=O)/C(C#N)=C/c1ncc[nH]1)c1ccc(OCCN(C)C)cc1` (stereo not drawn) [Compound 38, (E)-2-Cyano-N-(1-(4-(2-(dimethylamino)ethoxy)phenyl)butyl)-3-(1H-imidazol-2-yl)acrylamide], in assay [3], the “AMC Assay on USP9X-UCH Activity relative to WP1130” value is “Inconclusive”. Besides, the log reduction at 5 µM in assay [4] worked out at 0.5. For the same compound, in assay [5], the “MTT Activity relative to WP1130” value is given as “Less sensitive”.

`CCC[C@H](NC(=O)/C(C#N)=C/c1cccc(F)n1)c1ccccc1` [Compound 40, (S,E)-2-Cyano-3-(6-fluoropyridin-2-yl)-N-(1-phenylbutyl)acrylamide]: in assay [3], the “AMC Assay on USP9X-UCH Activity relative to WP1130” value was “Less sensitive”. For the same compound, the log reduction at 5 µM in assay [4] was 2. Also, the “MTT Activity relative to WP1130” value in assay [5] was “Less sensitive”.

As to `CCC[C@H](NC(=O)/C(C#N)=C/c1cccc(Cl)n1)c1ccccc1` [Compound 41, (S,E)-2-Cyano-3-(6-chloropyridin-2-yl)-N-(1-phenylbutyl)acrylamide], the “AMC Assay on USP9X-UCH Activity relative to WP1130” value in assay [3] was “Inconclusive”. Also, in assay [4], the log reduction at 5 µM worked out at 2. In addition, the “MTT Activity relative to WP1130” value in assay [5] is listed as “Less sensitive”.

As for `CCC[C@H](NC(=O)/C(C#N)=C/c1ncc[nH]1)c1ccccc1` [Compound 42, (S,E)-2-Cyano-3-(1H-imidazol-2-yl)-N-(1-phenylbutyl)acrylamide], in assay [3], the “AMC Assay on USP9X-UCH Activity relative to WP1130” value is on record as “Less sensitive”. Besides, the log reduction at 5 µM in assay [4] is 0.5. Also, the “MTT Activity relative to WP1130” value in assay [5] is reported as “Less sensitive”.

`CCCC(NC(=O)/C(C#N)=C/c1cccc(Br)n1)c1ccc(OCCOCCOCCNC(=O)CCCC[C@@H]2SC[C@@H]3NC(=O)N[C@@H]32)cc1` (stereo partly drawn) [Compound 48, N-(2-(2-(2-(4-(1-((E)-3-(6-Bromopyridin-2-yl)-2-cyanoacrylamido)butyl)phenoxy)ethoxy)ethoxy)ethyl)-5-((3aS,4S,6aR)-2-oxohexahydro-1H-thieno[3,4-d]imidazol-4-yl)pentanamide]: in assay [4], the log reduction at 5 µM was found to be 1.5.

As for `CCCC(NC(=O)/C=C/c1cccc(Br)n1)c1ccc(OCCOCCOCCNC(=O)CCCC[C@@H]2SC[C@@H]3NC(=O)N[C@@H]32)cc1` (stereo partly drawn) [Compound 51, N-(2-(2-(2-(4-(1-((E)-3-(6-Bromopyridin-2-yl)acrylamido)butyl)phenoxy)ethoxy)ethoxy)ethyl)-5-((3aS,4S,6aR)-2-oxohexahydro-1H-thieno[3,4-d]imidazol-4-yl)pentanamide], the log reduction at 5 µM in assay [4] worked out at 0.

As for `CCN1C(=O)C=CC1=O` [NEM, N-ethylmaleimide, reference compound], the “Ub-AMC hydrolyzing activity of lysates from treated cells” value in assay [6] (CML cells, WP1130 1-8 hours) is on record as “completely blocked substrate hydrolysis”. In addition, the “suppression of cellular DUB activity (ubiquitin-AMC)” value in assay [6] (Z138 cells, within 1 hr) worked out at 80%.

Consider `Cc1cnc(Nc2ccc(N3CCN(C)CC3)cc2)nc1Nc1cccc(S(=O)(=O)NC(C)(C)C)c1` [TG101209, reference compound], for which the “Usp9x activity (HA-UbVs labeling)” value in assay [1] is recorded as “none of the kinase inhibitors examined had significant Usp9x inhibitory activity”.

As for `Cc1ccc(NC(=O)c2ccc(CN3CCN(C)CC3)cc2)cc1Nc1nccc(-c2cccnc2)n1` [imatinib, reference compound], in assay [1], the “Usp9x activity (HA-UbVs labeling)” value is reported as “none of the kinase inhibitors examined had significant Usp9x inhibitory activity”.
